Laboratory results published in PMC6491995, “Preclinical evaluation of the first intravenous small molecule MDM2 antagonist alone and in combination with temozolomide in neuroblastoma” (International Journal of Cancer, 2019).

Legend:
[1] = PK of orally formulated idasanutlin in subcutaneous NGP neuroblastoma xenograft model; format: in vivo; conditions: single oral dose equivalent to 100 mg/kg active idasanutlin, subcutaneous NGP xenograft mice, preliminary studies
Description: We previously conducted similar PK/PD analyses of orally formulated idasanutlin in preliminary studies of a subcutaneous NGP neuroblastoma xenograft model after a single oral dose equivalent to 100 mg/kg of active idasanutlin (Fig. S8, Supporting Information).
Figure S8. PK and PD analysis of orally formulated idasanutlin in a TP53 wt subcutaneous xenograft model of neuroblastoma. Female CD1 nude mice were implanted subcutaneously with […] TP53 wt, MDM2 and MYCN amplified NGP neuroblastoma cells. A) PK analysis of idasanutlin levels using LC-MS in plasma samples harvested at the indicated time points from tumour bearing mice treated with a single dose equivalent to 100mg/kg of active idasanutlin by oral gavage. PD profiling for B) induction of the p53 pathway using Western analysis of p53, p21, and MDM2 levels in tumours, and C) MIC-1 levels in plasma harvested at the indicated time points from subcutaneous NGP tumour bearing mice treated with a single dose of idasanutlin by oral gavage. n=3 mice per time point. CTR, control.
(1 picture or pasted object on this page, not shown here)

NB1691 cells = test system: NB1691 cells; design: method as in PMID 25844600; conditions: 72 h, read-out: 72 h GI50 concentration; cited from earlier work
[2] = test system: NB1691-Luc orthotopic tumours; assay: Efficacy study in NB1691-Luc orthotopic tumour bearing mice; format: in vivo; conditions: for Reduction in bioluminescence vs. control: RO6839921 eq. 100 mg/kg IV weekly, temozolomide 34 mg/kg PO daily x5; for %ILS (Median): increase in lifespan vs. control based on median survival
Description: (§1) All in vivo experiments were approved by the licencing and ethical committee of the IRCCS San Martino‐IST (Genoa, Italy), the Italian Ministry of Health, Newcastle University and the UK Government Home Office. Orthotopic murine SHSY5Y‐Luc or NB1691‐Luc models were established and monitored using bioluminescence (BLI) IVIS imaging, as previously described.18, 19, 20 RO6839921 (equivalent to 100 mg/kg of active idasanutlin) and temozolomide (34 mg/kg equivalent to 100 mg/m^2 were given by IV tail vein injection and oral gavage, respectively. Tumour bearing mice were randomised into n = 3/group and n = 8/group for pharmacokinetic (PK)/pharmacodynamic (PD) studies and efficacy studies, respectively, and samples taken at the indicated time points (Supporting Information Fig. S1). To minimise esterase activity, 0.2% dichlorvos (Sigma‐Aldrich) was added to blood samples. […] Animals were monitored 2–3 times weekly and euthanized humanely just before showing signs of illness/suffering such as abdominal dilatation, paraplegia, dehydration, or severe weight loss. Percentage increase in lifespan (%ILS) was calculated based on both median and mean survival to humane endpoint, as previously described.5 For more detailed procedures see Supporting Information.
(§2) The efficacy of RO6839921 alone and in combination with temozolomide was assessed in SHSY5Y‐Luc and NB1691‐Luc orthotopic tumour bearing mice. The intermittent schedule used is equivalent to one cycle of treatment over a 3 week period (Fig. S1, Supporting Information). Mice were randomised into control, RO6839921 (once per week for 3 weeks), temozolomide (daily x5/3 weeks; consistent with the currently used clinical dosing schedule in the BEACON Trial (NCT02308527)), or RO6839921 and temozolomide treatment groups (n = 8/group; Fig. S1, Supporting Information).
(§3) Supplementary Information
(§4) Detailed methods of orthotopic in vivo experiments
(§5) Five week old female athymic Nude-Foxn1nu mice (Envigo, Bresso, Italy) were anesthetized, subjected to a laparotomy and orthotopically injected with 1×10^6 SHSY5Y-Luc or NB1691-Luc neuroblastoma cells into the capsule of the left adrenal gland, as previously described (1-3). […]
(§6) using BLI IVIS imaging for tumour development (~2-3 weeks) prior to commencement of treatment. […]
(§7) 10min and stored at -80°C. For efficacy studies, SHSY5Y-Luc or NB1691-Luc tumour bearing mice were randomized […]
(§8) temozolomide (34mg/kg, daily x5 only by oral gavage) or RO6839921 and temozolomide treatment groups with 8 mice per group (Figure S1), and monitored by IVIS imaging for tumour growth. Baseline bioluminescence were measured prior to initiation of treatment on Day 1, and then during treatment on Days 8 (BLI1) and 15 (BLI2) (Figure S1). Twenty-four hours after the end of treatment, 3 mice per group were sacrificed for PK and PD analyses, and the remaining 5 mice per group were monitored for survival to humane endpoint (Figure S1). Animals were monitored 2-3 times weekly

[3] = test system: SHSY5Y-Luc orthotopic tumours; assay: Efficacy study in SHSY5Y-Luc orthotopic tumour bearing mice; format: in vivo; conditions: for Reduction in bioluminescence vs. control: RO6839921 eq. 100 mg/kg IV weekly, temozolomide 34 mg/kg PO daily x5; for %ILS (Median): increase in lifespan vs. control based on median survival
Description: as §1, §2, §3, §4, §5, §6, §7, §8

[4] = test system: NB1691-Luc orthotopic tumours; assay: IHC analysis of NB1691-Luc orthotopic tumours after one treatment cycle; format: in vivo, mice; conditions: 24 h after one treatment cycle, n = 3
Description: Tumours were disaggregated in Phosphosafe buffer (Merck Millipore) using the Medimachine with Medicons inserts (BD Biosciences, Oxford, UK) and Western analysis carried out as previously described.21 Human MIC‐1 assays were performed according to manufacturer's protocols (R&D Systems). IHC was performed using validated protocols and the Ventana Benchmark Ultra automated system (Ventana Medical Systems, Inc, Tucson, AZ, USA) in the Cellular Pathology Department, Royal Victoria Infirmary, Newcastle upon Tyne, UK.
Figure 3 MIC‐1 levels and IHC analysis of Ki67, p53, p21, and cleaved caspase 3 (CC3) in orthotopic tumours in response to one cycle of RO6839921 and temozolomide alone and in combination. […] Statistically significant differences vs. control were determined by unpaired t‐tests. […] Graphical representation of quantification of % positive Ki67, p53, p21, and CC3 staining in (d) NB1691‐Luc and (e) SHSY5Y‐Luc orthotopic tumours using Imagescope software and algorithms (Leica Biosystems, Newcastle upon Tyne, UK) and/or scored for positive immunostaining by a consultant pathologist (KW). n = 3 mice per group. […] Statistically significant differences were determined by one‐way ANOVA with Bonferroni post‐hoc tests and paired testing vs. control. p ≤ 0.05 (*); 0.01 (**); 0.001 (***); 0.0001 (****). […]

[5] = design: method as in PMID 16047361, PMID 9744506, PMID 9738573, PMID 17114659; conditions: clinical data in children; cited from earlier work
[6] = after 1 week of treatment (Day 8/BLI1)
[7] = after 2 weeks of treatment (Day 15/BLI2)
[8] = increase in lifespan vs. control based on mean survival
[9] = survival to humane endpoint, n = 5/group, one treatment cycle

Row | SMILES | Plasma concentration of active idasanutlin [1] | GI50 (NB1691 cells) | Reduction in bioluminescence vs. control [2, 6] | Reduction in bioluminescence vs. control [2, 7] | %ILS (Mean) [2, 8] | %ILS (Median) [2] | %ILS (Median) ([2]; listed as Temozolomide) | Mean Survival [2, 9] | Median Survival [2, 9] | Reduction in bioluminescence vs. control [3, 6] | Reduction in bioluminescence vs. control [3, 7] | %ILS (Mean) [3, 8] | %ILS (Median) [3] | %ILS (Median) ([3]; listed as Temozolomide) | Mean Survival [3, 9] | Median Survival [3, 9] | Ki67 positive cells vs. control (IHC) [4] | Main toxicities in children [5]
1 | COc1cc(C(=O)O)ccc1NC(=O)[C@@H]1N[C@@H](CC(C)(C)C)[C@](C#N)(c2ccc(Cl)cc2F)[C@H]1c1cccc(Cl)c1F [idasanutlin, Idasanutlin] | ~5000 ng/mL | 0.041 µM |  |  |  |  |  |  |  |  |  |  |  |  |  |  |  | 
2 | Cn1nnc2c(C(N)=O)ncn2c1=O [temozolomide] |  | 868 µM | 35% | 24% | 16% | 6% | 6% | 41 days | 37 days | 36% | 39% | 11% | 14% | 14% | 49 days | 49 days | did not reduce | thrombocytopenia and neutropenia
